According to US4371544A, “Pharmaceutical composition containing 1,1,3,5-substituted biuret compound” (Taiho Pharmaceutical Company Limited, priority 1979, dated 1983):
Like-named read-outs stand apart in the source and are kept apart here.

Legend:
ddy strain of male mice [1] = assay: Analgesic activity, Haffner method (morphine threshold dose, clamp); type: in vivo, mouse (ddy); conditions: for inhibition in vivo at 200 mg/kg: 200 mg/kg oral; for ED50: oral, Δ mark, range in parentheses
Procedure: (§1) Next, several tests for determining the pharmacological properties, in that acute toxicity, anti-pyretic activity, analgesic activity and anti-inflammatory activity of the present 1,1,3,5-substituted biuret compounds of the formula (1) were conducted and the test results are shown in Table (2). In the tests, each compounds to be tested was used as a suspension in 0.25% carboxymethylcellulose solution. Methods for testing are explained as follows:
According to the modified method reported by Fujimura et. al., [Bulletin of the Institute for Chemical Research, Kyoto University, No. 25, pp. 36 (1951)], the ddy strain of male mice (body weight, 20-25 g) were used as test animals. The mice were fasted overnight, 100 mg/kg body weight of the test compound was administered orally, then 45 minutes after the administration, the threshold amount (1.5-2.5 mg/kg body weight) of morphine hydrochloride was injected subcutaneously. Then 1-hour pain reaction of the mouse caused by a clamp was observed. Analgesic activity of the test compound was calculated as the inhibitory ratio (%). In Table 2, the values in parentheses show the data obtained from the test by using the dosage other than 100 mg/kg body weight. Further, the values indicated with Δ marks show 50% effective dose, ED50 (mg/kg body weight).

ddy strain of male mice [2] = assay: Acute toxicity (oral, mice, 7 days observation); type: in vivo
Procedure: as §1
The ddy strain of male mice (body weight, 20-25 g) were used as test animals. The mice were fasted overnight and the compound to be tested was administered orally. […] The lethal dose (mg/kg, body weight) of the test compound was determined in connection with the death number of mice/the number of mice tested. In Table 2, the values indicated with Δ marks are 50% lethal dose, LD50 (mg/kg, body weight).

ddy strain of male mice [3] = assay: Analgesic activity, acetic acid-induced stretching method; type: in vivo, mouse (ddy); conditions: for ED50: oral, Δ mark, range in parentheses
Procedure: as §1
According to the method reported by Koster et al., [Fed. Proc., Vol. 18, pp. 412 (1959)], the ddy strain of male mice (body weight, 20-25 g) were used as test animals. The mice were fasted overnight, 100 mg/kg body weight of the test compound was administered orally, then 1 hour after the administration, 0.2 ml of 0.7% acetic acid solution was injected intraperitoneally. The acetic acid-induced stretching symptom of mouse was observed. Analgesic activity of the test compound was calculated as the inhibitory ratio (%). In Table 2, the values in parentheses show the data obtained from the test by using the dosage other than 100 mg/kg body weight. Further, the values indicated with Δ marks show 50% effective dose, ED50 (mg/kg body weight).

[4] = tested on: Wistar strain of male rats; assay: Anti-inflammatory activity (acute carrageenin-induced inflammatory test, hindpaw); type: in vivo, rat (Wistar)
Procedure: as §1
According to the method of acute carrageenin-induced inflammatory test [Folia Pharmacologia Japonica, Vol. 56, pp. 575 (1960)], the Wistar strain of male rats (body weight, 150-180 g) were used as test animals. The rats were fasted overnight, 100 mg/kg body weight of the test compound was administered orally, then 1 hour after the administration, 0.1 ml of 1% carrageenin solution, as the inflammation inducing agent, was injected subcutaneously to the hindpaw of the rat and the volume of the hindpaw was measured at time sequences, Anti-inflammatory activity of the test compound was calculated as inflammation inhibitory ratio (%) at 3 hours after the injection of inflammation inducing agent.

[5] = tested on: Wistar strain of male rats; assay: Anti-pyretic activity (dry-yeast-induced fever); type: in vivo, rat (Wistar); conditions: oral (dose not given), up to 4 hours after administration
Procedure: as §1
According to the method reported by Tanabe [Folia Pharmacologia Japonica, Vol. 73, pp. 803 (1977)], the Wistar strain of male rats (150-180 g, body weight) were used as test animals. The rats were fasted overnight, and 1 ml/100 g (body weight) of 10% dry-yeast suspension were subcutaneously injected on the back of the rats. Five hours after the injection, the test compound was administered orally, then the body temperature of the rat was measured at time sequences. Anti-pyretic activity of the test compound was determined as the FI (febril index) by integrating pyrogenetic curve up to 4 hours after the administration of the test compound with time, and indicated as inhibitory ratio (%) shown by the following formula, [formula]

[6] = Mus musculus, read-out: Analgesic activity, Haffner method, inhibitory ratio
[7] = Mus musculus, po, read-out: Analgesic activity, acetic acid-induced stretching method, inhibitory ratio
[8] = Rattus norvegicus, 100 mg/kg oral, 3 hours after carrageenin, read-out: Anti-inflammatory activity, inflammation inhibitory ratio
[9] = 100 mg/kg oral, 3 hours after carrageenin

Structure (SMILES)	Acute toxicity: death number of mice/number of mice tested (ddy strain of male mice [2]; 2000 mg/kg oral)	Anti-pyretic activity, inhibitory ratio (febril index) [5]	ED50 (ddy strain of male mice [1]; Mus musculus)	ED50 (ddy strain of male mice [3]; Mus musculus)	Anti-inflammatory activity, inflammation inhibitory ratio [4, 9]	further results
CN(C)C(=O)NC(=O)Nc1ccccc1 [Compound No. 1]	–	–	–	–	–	inhibition in vivo at 200 mg/kg (ddy strain of male mice [1]; [6]): 50%; Acute toxicity: death number of mice/number of mice tested (ddy strain of male mice [2]; mouse, in vivo): 0/4; inhibition in vivo at 100 mg/kg (ddy strain of male mice [3]; [7]): 50%; inhibition in vivo at 100 mg/kg [4, 8]: 42%
COc1ccc(NC(=O)NC(=O)N(C)C)cc1 [Compound No. 4, 1,1-Dimethyl-5-(4-methoxyphenyl)biuret]	0/4	–	–	–	–	inhibition in vivo at 100 mg/kg (ddy strain of male mice [1]; Mus musculus, 100 mg/kg oral, 45 minutes before morphine hydrochloride, read-out: Analgesic activity, Haffner method, inhibitory ratio): 50%; inhibition in vivo at 100 mg/kg (ddy strain of male mice [3]; [7]): 75%; inhibition in vivo at 100 mg/kg ([4]; Rattus norvegicus, po, 3 h, read-out: Anti-inflammatory activity, inflammation inhibitory ratio): 43%
Cc1ccc(NC(=O)NC(=O)N(C)C)cc1 [Compound No. 5]	0/4	–	–	–	–	inhibition in vivo at 100 mg/kg (ddy strain of male mice [3]; [7]): 25%; inhibition in vivo at 100 mg/kg ([4]; Rattus norvegicus, po, 2 h, read-out: Anti-inflammatory activity, inflammation inhibitory ratio): 23%
CN(C)C(=O)N(C)C(=O)Nc1ccccc1 [Compound No. 6, 1,1,3-trimethyl-5-phenylbiuret]	–	80%	68 mg/kg	75 mg/kg	59%	–
CN(C)C(=O)N(C)C(=O)Nc1ccc(Cl)cc1 [Compound No. 12, 1,1,3-Trimethyl-5-(4-chlorophenyl)biuret]	–	84%	20 mg/kg	12 mg/kg	47%	–
CN(C)C(=O)N(C)C(=O)Nc1ccc(Br)cc1 [Compound No. 16, 1,1,3-Trimethyl-5-(4-bromophenyl)biuret]	–	103%	74 mg/kg	60 mg/kg	–	Anti-inflammatory activity, inflammation inhibitory ratio ([4]; 100 mg/kg oral, (2 hours)): 48%
CN(C)C(=O)N(C)C(=O)Nc1ccccc1C(F)(F)F [Compound No. 17, 1,1,3-Trimethyl-5-(2-trifluoromethylphenyl)biuret]	–	65%	–	–	66%	Analgesic activity, Haffner method, inhibitory ratio (ddy strain of male mice [1]; 100 mg/kg oral, 45 minutes before morphine hydrochloride): 37.5%; Acute toxicity: death number of mice/number of mice tested (ddy strain of male mice [2]; 1000 mg/kg oral): 1/4; Analgesic activity, acetic acid-induced stretching method, inhibitory ratio (ddy strain of male mice [3]; 100 mg/kg oral, 1 hour before acetic acid): 12.5%
COc1ccc(NC(=O)N(C)C(=O)N(C)C)cc1 [Compound No. 23, 1,1,3-Trimethyl-5-(4-methoxyphenyl)biuret]	–	75%	80 mg/kg	39 mg/kg	33%	–
Cc1ccc(NC(=O)N(C)C(=O)N(C)C)cc1 [Compound No. 28, 1,1,3-Trimethyl-5-(4-methylphenyl)biuret]	0/4	52%	80 mg/kg	33 mg/kg	–	Anti-inflammatory activity, inflammation inhibitory ratio ([4]; 100 mg/kg oral, (2 hours)): 23%
CN(C)C(=O)N(C(=O)Nc1ccccc1)c1ccccc1 [Compound No. 42, 1,1-dimethyl-3,5-diphenylbiuret]	3/4	14%	–	–	–	inhibition in vivo at 200 mg/kg (ddy strain of male mice [1]; [6]): 50%; Acute toxicity: death number of mice/number of mice tested (ddy strain of male mice [2]; 1000 mg/kg oral): 0/4; inhibition in vivo at 200 mg/kg (ddy strain of male mice [3]; [7]): 62.5%; inhibition in vivo at 100 mg/kg [4, 8]: 34%
CCN(C)C(=O)NC(=O)Nc1ccccc1 [Compound No. 43, 1-ethyl-1-methyl-5-phenylbiuret]	0/4	–	–	–	–	inhibition in vivo at 200 mg/kg (ddy strain of male mice [1]; [6]): 12.5%; inhibition in vivo at 100 mg/kg (ddy strain of male mice [3]; Mus musculus, 100 mg/kg oral, 1 hour before acetic acid, read-out: Analgesic activity, acetic acid-induced stretching method, inhibitory ratio): 50%; inhibition in vivo at 200 mg/kg ([4]; Rattus norvegicus, 200 mg/kg oral, 3 hours after carrageenin, read-out: Anti-inflammatory activity, inflammation inhibitory ratio): 72%
